Assay results published in the OPERA property sets (Mansouri et al. 2018).

Conditions: for log10 biotransformation half-life (days) / log10 BCF: fish

SMILES | boiling point [°C] | melting point [°C] | further results
CCCCCCCCOC(=O)c1ccccc1C(=O)OCCCCCCCC(C)C | 447 | 98 | 
CCCCOC(=O)CCC(=O)O |  | 8.6 | 
COc1ccc(CCl)cc1 | 262 | 24.5 | 
CCOCC(O)CO (stereo unspecified) | 222 |  | 
CCSCC | 92.1 | -104 | log10 Henry constant (atm·m³/mol): -2.77; log10 vapour pressure (mmHg): 1.78
CCCCOC(C)C | 109 |  | 
CCOC(=O)c1ccccc1S(=O)(=O)NC(=O)Nc1nc(Cl)cc(OC)n1 |  |  | log10 Koc (L/kg): 2.04
ClCCCCCCl | 179 | -72.8 | log10 Henry constant (atm·m³/mol): -3.25; log10 vapour pressure (mmHg): 0.0531
COc1ncnc(NS(=O)(=O)c2ccc(N)cc2)c1OC |  | 192 | 
CCCCCCCCCCCCCCCCCCCCCCCCCCCCCCO |  | 88 | 
Nc1ccc(-c2ccc(Cl)cc2)cc1 |  | 134 | 
Clc1ccc(Cl)s1 | 162 | -40.5 | log10 vapour pressure (mmHg): 0.934
CCCCCCCCCCC(=O)CC |  | 31 | 
Clc1ccc(Oc2ccc(Cl)cc2)cc1 | 313 | 30 | log10 vapour pressure (mmHg): -3.3
COC(=O)C(Cl)(Cl)Cl | 154 | -17.5 | 
COc1ccc(C(=O)c2csc(S(N)(=O)=O)c2)cc1 |  | 174 | 
Cc1ccc([N+](=O)[O-])c(F)c1 |  | 53.2 | 
CN(CCCN)CCCN | 232 |  | 
CCCCCCCCC(=O)N(CCO)CCO |  |  | ready biodegradability: readily biodegradable
COC(=O)c1ccc(OC)c(OC)c1 | 283 | 60.8 | 
CC(Cc1ccc(C(C)(C)C)cc1)CN1CCCCC1 (stereo unspecified) |  |  | log10 vapour pressure (mmHg): -3.89
CCCCCCCCCCCCCCCCCC(=O)OCCCCC |  | 30 | 
Cc1[nH]ncc1Br |  | 76.5 | 
CCCC(CC)C(C)(C)C (stereo unspecified) | 156 |  | 
CN1Cc2c(N)cccc2C(c2ccccc2)C1 (stereo unspecified) |  | 180 | 

SMILES | boiling point [°C] | melting point [°C] | further results
CSC(C)(C)C=NO | 210 | 21 | 
ClC(Cl)(Cl)CC(Cl)(Cl)Cl | 206 | -27 | 
CCCC[N+](CCCC)(CCCC)CCCC.[I-] |  | 148 | 
CCCC(C)(COC(N)=O)COC(=O)NC(C)C (stereo unspecified) |  | 92 | 
O=C(Nc1ncc([N+](=O)[O-])s1)c1cccs1 |  | 256 | 
CC(C)CC(=O)C=Cc1ccccc1 |  | 43 | 
Cc1ccc([N+](=O)[O-])cc1N |  | 106 | 
C[Si](C)(CCl)c1ccccc1 | 225 |  | 
C[C@@H]1CCCC[C@@H]1C (racemic) |  | -70 | 
C=CCNS(=O)(=O)c1cc(S(N)(=O)=O)c(Cl)cc1/N=C/C=C(/C)O |  | 206 | 
O=[N+]([O-])c1ccc(C2CCCCC2)cc1 |  | 58.5 | 
CCCCCCCCCCCCCCCCCl | 322 | 17.9 | log10 vapour pressure (mmHg): -4.21
O=S(=O)(Oc1ccc(Cl)cc1)c1ccc(Cl)cc1 |  | 86.5 | ready biodegradability: not readily biodegradable
FCC(F)F | 5 | -84 | 
CC(=O)CCCC(C)C | 167 |  | 
CCc1ccnc(C)c1 | 179 |  | 
Cc1ccc(C#N)cc1 | 217 | 29.5 | log10 vapour pressure (mmHg): -0.504
ClC1=C(Cl)C2(Cl)C3C4OC4C(Cl)C3C1(Cl)C2(Cl)Cl (stereo unspecified) |  | 160 | log10 Henry constant (atm·m³/mol): -4.68; log10 Koc (L/kg): 4.02; log10 vapour pressure (mmHg): -4.71; log10 biotransformation half-life (days): 2.2
C=CCCCCCCC(=O)O |  | 5 | 
ClC1c2ccccc2CCc2ccccc21 |  | 106 | 
Cc1nc(=O)c2ccccc2[nH]1 |  | 232 | 
CCCCCO[N+](=O)[O-] | 157 |  | log10 Henry constant (atm·m³/mol): -2.78; log10 vapour pressure (mmHg): 0.705
O=C=Nc1ccc(Cc2ccc(N=C=O)cc2)cc1 |  | 38 | 
CCn1cc(C(=O)O)c(=O)c2cc(F)c(N3CCNC(C)C3)c(F)c21 (stereo unspecified) |  | 240 | 
O=C(OC(=O)C(F)(F)C(F)(F)F)C(F)(F)C(F)(F)F | 73 |  | 

SMILES | boiling point [°C] | melting point [°C] | further results
C=C1CCC2CC1C2(C)C (stereo unspecified) | 166 | -61.2 | log10 vapour pressure (mmHg): 0.467
ClCCOCCCl | 178 | -51.9 | log10 Koc (L/kg): 1.88; log10 vapour pressure (mmHg): 0.19; ready biodegradability: not readily biodegradable; log10 BCF: 1; log10 biotransformation half-life (days): -0.81
O=C(O)[C@H]1CC[C@H]1C(=O)O |  | 131 | 
COc1c2c(cc3oc(=O)ccc13)OC(C)(C)C=C2 |  | 133 | 
C1=CCCC1 | 44.2 | -135 | log10 vapour pressure (mmHg): 2.58; ready biodegradability: readily biodegradable
Cc1cncc(C)c1 | 172 | -6.6 | log10 Henry constant (atm·m³/mol): -5.16; log10 vapour pressure (mmHg): 0.239
COC(=O)CCCCl | 175 |  | 
O=c1c2ccccc2ccc2ccccc12 |  | 88.5 | 
O=c1cnn([C@@H]2O[C@H](CO)[C@@H](O)[C@H]2O)c(=O)[nH]1 |  | 158 | 
CC(c1ccccc1)c1ccc(O)c(C(C)c2ccccc2)c1C(C)c1ccccc1 (stereo unspecified) |  |  | ready biodegradability: not readily biodegradable
c1ccc2cc3c(ccc4cc5ccccc5cc43)cc2c1 |  | 257 | 
CC(=O)I | 108 |  | log10 vapour pressure (mmHg): 1.51
c1ccc2cc(-c3ccc4ccccc4c3)ccc2c1 | 452 | 188 | 
CCCCCCCC#N | 205 | -45.6 | log10 vapour pressure (mmHg): -0.409
CC1(C)C(=O)N(Br)C(=O)N1Cl |  | 164 | 
Brc1c(Br)c(Br)c(Oc2c(Br)c(Br)c(Br)c(Br)c2Br)c(Br)c1Br | 530 | 295 | ready biodegradability: not readily biodegradable; log10 biotransformation half-life (days): 1.16
CCSCCSP(=S)(OC)OC |  |  | log10 vapour pressure (mmHg): -4.77
CC(C)OC(=O)c1cc(C(=O)OC(C)C)cc([N+](=O)[O-])c1 |  | 65 | 
COc1cc(C=O)cc(OC)c1O |  | 113 | ready biodegradability: readily biodegradable
Oc1ccc2cccnc2c1 |  | 239 | 
CCCC(C)C | 60.2 |  | log10 vapour pressure (mmHg): 2.32; ready biodegradability: readily biodegradable
COc1cc(OC)nc(N=C(O)NS(=O)(=O)N(C)S(C)(=O)=O)n1 |  | 162 | log10 vapour pressure (mmHg): -6.78
c1ccc(CN(Cc2ccccc2)c2ccccc2)cc1 |  | 69 | 
CCC1CCC(C)CC1 (stereo unspecified) | 151 | -80.8 | 
CCCCc1c(C)nc(NCC)nc1OS(=O)(=O)N(C)C |  | 50.5 | log10 vapour pressure (mmHg): -6.12

SMILES | boiling point [°C] | melting point [°C] | further results
CCC(=O)C(C)CC (stereo unspecified) | 134 |  | 
CCNC(=O)Nc1ncc([N+](=O)[O-])s1 |  | 228 | 
C/C=C\C | 2.25 | -122 | log10 Henry constant (atm·m³/mol): -0.643
C1CSCCS1 | 200 | 112 | log10 vapour pressure (mmHg): -0.0969
CCOc1ccc(CC(=O)O)cc1 |  | 88.5 | 
Oc1cccc(F)c1 | 178 | 13.7 | 
CC(=O)OC[C@]12C[C@H](OC(=O)CC(C)C)C(C)=C[C@H]1O[C@@H]1[C@H](O)[C@@H](OC(C)=O)[C@@]2(C)[C@]12CO2 |  | 152 | 
CCc1ccc(O)c(C(C)(C)C)c1 |  |  | log10 vapour pressure (mmHg): -1.74
O=S(O)c1ccccc1 |  | 84 | ready biodegradability: not readily biodegradable
FC(F)(F)c1nc(C(F)(F)F)nc(C(F)(F)F)n1 | 95.5 | -24.8 | 
CC(C)(C)OCC1CO1 (stereo unspecified) | 152 | -70 | 
Oc1ccc2c(c1)CCCC2 | 276 | 57 | 
CCCC[N+](=O)[O-] | 153 | -81.3 | log10 vapour pressure (mmHg): 0.579
CC(=O)NC12CC3CC(CC(C3)C1)C2 |  | 148 | 
CCCn1cnc2c1c(=O)n(CCCCC(C)=O)c(=O)n2C |  | 69 | 
CCCC#CCCCCCC | 198 | -74.7 | 
Brc1ccc2ncccc2c1 | 281 | 24 | 
C=CCCCCCCCCCCCC | 233 | -12 | log10 vapour pressure (mmHg): -1.82
c1ccc2cc(Oc3ccc4ccccc4c3)ccc2c1 |  | 105 | 
O=C(Nc1ccc2ncccc2c1)Nc1ccc2ncccc2c1 |  | 262 | 
C#CC(C)(C)Cl | 76 | -61 | 
OC1[C@@H](O)[C@H](O)C[C@@H](O)[C@@H]1O (stereo partly specified) |  | 236 | 
Clc1ccc(-c2cccc(Cl)c2Cl)cc1 |  |  | log10 Henry constant (atm·m³/mol): -3.85; log10 biotransformation half-life (days): 2.16
Cn1c(=O)on(-c2ccc(Cl)c(Cl)c2)c1=O |  | 123 | log10 Koc (L/kg): 3.48; log10 vapour pressure (mmHg): -6
OCCC(F)(F)F | 99.5 |  | 

SMILES | boiling point [°C] | melting point [°C] | further results
CCCCCCCCCCCCCCCCCC(=O)OCCOC(=O)CCCCCCCCCCCCCCCCC |  | 79 | ready biodegradability: readily biodegradable
O=[N+]([O-])c1ccc2c(c1)oc1ccccc12 |  | 182 | 
C(CC1CCNCC1)CC1CCNCC1 | 329 | 67.1 | 
O=C(O)Cc1cccnc1 |  | 144 | 
CCCCCCO | 158 | -44.6 | log10 Henry constant (atm·m³/mol): -4.77; log10 vapour pressure (mmHg): -0.0325; ready biodegradability: readily biodegradable
CC(Cl)(Cl)CCl | 124 |  | 
Clc1cc(-c2c(Cl)c(Cl)cc(Cl)c2Cl)c(Cl)c(Cl)c1Cl |  |  | log10 Henry constant (atm·m³/mol): -5; log10 biotransformation half-life (days): 2.47
O=C(O)Cc1ccccc1F |  | 63 | 
NS(=O)(=O)c1ccc(SCCCCO)cc1 |  | 101 | 
CCCCCCCCCCCCCC[N+](C)(C)Cc1ccccc1 |  |  | ready biodegradability: not readily biodegradable
Nc1cccc2c(N)cccc12 |  | 190 | ready biodegradability: not readily biodegradable; log10 BCF: 0.65; log10 biotransformation half-life (days): -0.52
CCC#CC(C)C | 95.2 | -117 | 
CCOC(=S)SSC(=S)OCC |  | 30 | 
CC(=O)NCCS |  | 6.5 | 
Nc1nccs1 |  | 93 | ready biodegradability: not readily biodegradable
CCCCCCCCCCCCCCCCCC1CCCCC1 | 397 | 38 | 
c1ccc(CN(CC2=NCCN2)c2ccccc2)cc1 |  | 120 | 
CC(=O)CC(C)=O | 138 | -23 | log10 vapour pressure (mmHg): 0.471; ready biodegradability: readily biodegradable
Cc1nccc2c1[nH]c1ccccc12 |  | 236 | 
CCCCCCCCCCCCCCCCCCCCCCCC(=O)O |  | 84.2 | 
CCCC(C)=O | 102 | -76.9 | log10 Henry constant (atm·m³/mol): -4.08; log10 Koa: 3.19; log10 vapour pressure (mmHg): 1.55
CCCCC(CC)CN (stereo unspecified) | 169 | -76 | log10 vapour pressure (mmHg): 0.146
CCOP(=S)(OCC)SCC(=O)NC(C)C |  | 28.5 | 
CNC(=O)Nc1ccccc1 |  |  | log10 Koc (L/kg): 1.29
CC(Cl)C(=O)O (stereo unspecified) | 185 |  | 
